Test results from patent publication US9085606B2, “Beta amino acid derivatives as integrin antagonists” (Saint Louis University, priority 2012, dated 2015).

Columns and labels:
[1] = biological target: T1, Recombinant human integrin αvβ5 (Homo sapiens, UniProt P06756+P18084); assay: Solid Phase Receptor Assay for αvβ5 Function; conditions: binding to vitronectin-coated plate; read-out: αvβ5 SPRA IC50
T1 construct: purchased R&D Systems 2528-AV
Experimental: Solid Phase Receptor Assay for αvβ5 Function.
Wells were washed 3 times with 150 μL TBS+ and 150 μL of blocking buffer (TBS+ with 1% bovine serum albumin, Sigma A7906) were added. The plate was incubated for 1 hr at 37° C. and then washed 3× with TBS+ buffer. […] Compounds were diluted 1:100 into the integrin solution and then 50 μL added to empty wells of the washed vitronectin-coated plate according to a standard template with each sample repeated in triplicate. After incubation for two hours at room temperature, the plate was washed 3× with 150 μL of TBS+ buffer. To each well, 50 μL of biotinylated anti-αv antibody (R&D Systems, BAF1219) at 0.5 μg/mL in TBS+/0.1% BSA at 0.5 μg/mL were added and the plate covered and incubated for 1 hr at room temperature. After washing the plate 3× with 150 μL of TBS+ buffer, 50 μL of streptavidin-conjugated horseradish peroxidase (R&D Systems DY998) diluted in TBS+ blocking buffer were added to the wells and the plate incubated for 20 min at room temperature. The plate was washed 3× with TBS+ buffer followed by 50 μL of TMB substrate (Sigma T4444) added to each well and the plate incubated for 20 min at room temperature. The reaction was optionally stopped with 25 μL of Stop Solution (Sigma S5689). Plates were read by colorimetric detection at 650 nm wavelength using a Tecan Safire II plate reader.

[2] = biological target: T2, Recombinant human integrin αvβ8 (Homo sapiens, UniProt P06756+P26012); assay: Solid Phase Receptor Assay for αvβ8 Function; conditions: binding to LAP-coated plate; read-out: αvβ8 SPRA IC50
T2 construct: purchased R&D Systems 4135-AV
Experimental: Solid Phase Receptor Assay for αvβ8 Function.
Wells were washed 3 times with 150 μL TBS+ and 150 μL of blocking buffer (TBS+ with 1% bovine serum albumin, Sigma A7906) were added. The plate was incubated for 1 hr at 37° C. and then washed 3× with TBS+. […] Compounds were diluted 1:100 into the integrin solution and 50 μL added to empty wells of the washed LAP-coated plate according to a standard template with each sample repeated in triplicate. After incubation for two hours at room temperature, the plate was washed 3× with 150 μL of TBS+. To each well, 50 μL of biotinylated anti-αv antibody (R&D Systems, BAF1219) at 1 μg/mL in TBS+/0.1% BSA were added and the plate was covered and incubated for 1 hr at room temperature. After washing the plate 3× with 150 μL of TBS+ buffer, 50 μL of streptavidin-conjugated horseradish peroxidase (R&D Systems, DY998) diluted in TBS+ blocking buffer were added to the wells and the plate incubated for 20 min at room temperature. The plate was washed 3× with TBS+ followed by 50 μL of TMB substrate (Sigma T4444) added to each well and the plate incubated for 20 min at room temperature. The reaction was optionally stopped with 25 μL of Stop Solution (Sigma S5689). Plates were read by colorimetric detection at 650 nm wavelength using a Tecan Safire II plate reader.

T1 sequence (P06756 31-992 limits assumed): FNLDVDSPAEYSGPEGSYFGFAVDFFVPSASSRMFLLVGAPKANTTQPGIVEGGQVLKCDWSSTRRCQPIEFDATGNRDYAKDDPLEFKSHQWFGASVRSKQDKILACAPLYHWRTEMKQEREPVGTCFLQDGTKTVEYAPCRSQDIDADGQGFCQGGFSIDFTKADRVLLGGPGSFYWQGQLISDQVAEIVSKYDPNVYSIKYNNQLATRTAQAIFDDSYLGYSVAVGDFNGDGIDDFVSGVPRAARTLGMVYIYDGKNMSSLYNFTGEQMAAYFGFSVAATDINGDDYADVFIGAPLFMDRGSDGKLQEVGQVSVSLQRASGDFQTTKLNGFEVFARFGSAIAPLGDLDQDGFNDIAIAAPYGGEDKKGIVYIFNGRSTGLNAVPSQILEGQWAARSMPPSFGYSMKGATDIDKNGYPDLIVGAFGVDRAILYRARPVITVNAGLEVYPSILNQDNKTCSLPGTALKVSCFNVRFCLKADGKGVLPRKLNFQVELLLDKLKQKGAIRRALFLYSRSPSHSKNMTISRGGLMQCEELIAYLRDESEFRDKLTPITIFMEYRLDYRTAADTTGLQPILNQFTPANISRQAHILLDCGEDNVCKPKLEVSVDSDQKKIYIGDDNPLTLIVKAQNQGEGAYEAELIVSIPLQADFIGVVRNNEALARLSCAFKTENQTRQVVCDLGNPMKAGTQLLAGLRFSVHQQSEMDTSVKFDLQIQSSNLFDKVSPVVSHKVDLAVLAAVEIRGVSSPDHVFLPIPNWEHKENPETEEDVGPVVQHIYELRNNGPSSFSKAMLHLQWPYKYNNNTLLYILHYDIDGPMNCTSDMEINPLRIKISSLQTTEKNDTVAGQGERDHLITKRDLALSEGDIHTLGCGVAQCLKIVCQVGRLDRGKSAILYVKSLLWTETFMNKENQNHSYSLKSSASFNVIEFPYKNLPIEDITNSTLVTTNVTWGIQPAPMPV
T1 sequence (P18084 24-719 limits assumed): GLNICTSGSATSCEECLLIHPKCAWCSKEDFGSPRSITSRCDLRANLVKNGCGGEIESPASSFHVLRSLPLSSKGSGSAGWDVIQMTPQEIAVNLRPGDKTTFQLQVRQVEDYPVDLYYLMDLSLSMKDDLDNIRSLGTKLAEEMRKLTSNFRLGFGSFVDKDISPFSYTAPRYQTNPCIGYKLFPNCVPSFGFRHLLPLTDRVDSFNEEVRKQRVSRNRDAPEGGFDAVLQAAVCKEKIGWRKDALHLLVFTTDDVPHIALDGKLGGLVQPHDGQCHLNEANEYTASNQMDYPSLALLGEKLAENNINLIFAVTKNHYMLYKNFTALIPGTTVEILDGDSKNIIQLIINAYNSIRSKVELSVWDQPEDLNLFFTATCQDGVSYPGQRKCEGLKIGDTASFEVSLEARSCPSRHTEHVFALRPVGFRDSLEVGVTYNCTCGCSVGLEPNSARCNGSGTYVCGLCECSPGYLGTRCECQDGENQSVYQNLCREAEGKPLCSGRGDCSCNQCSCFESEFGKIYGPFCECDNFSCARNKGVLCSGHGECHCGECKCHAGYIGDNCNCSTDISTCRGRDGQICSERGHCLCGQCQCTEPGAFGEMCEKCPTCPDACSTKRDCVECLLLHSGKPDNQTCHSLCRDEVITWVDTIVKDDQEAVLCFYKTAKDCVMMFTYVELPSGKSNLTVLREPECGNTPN
T2 sequence (P06756 31-992 limits assumed): as the sequence (P06756 31-992 limits assumed) above
T2 sequence (P26012 43-684 limits assumed): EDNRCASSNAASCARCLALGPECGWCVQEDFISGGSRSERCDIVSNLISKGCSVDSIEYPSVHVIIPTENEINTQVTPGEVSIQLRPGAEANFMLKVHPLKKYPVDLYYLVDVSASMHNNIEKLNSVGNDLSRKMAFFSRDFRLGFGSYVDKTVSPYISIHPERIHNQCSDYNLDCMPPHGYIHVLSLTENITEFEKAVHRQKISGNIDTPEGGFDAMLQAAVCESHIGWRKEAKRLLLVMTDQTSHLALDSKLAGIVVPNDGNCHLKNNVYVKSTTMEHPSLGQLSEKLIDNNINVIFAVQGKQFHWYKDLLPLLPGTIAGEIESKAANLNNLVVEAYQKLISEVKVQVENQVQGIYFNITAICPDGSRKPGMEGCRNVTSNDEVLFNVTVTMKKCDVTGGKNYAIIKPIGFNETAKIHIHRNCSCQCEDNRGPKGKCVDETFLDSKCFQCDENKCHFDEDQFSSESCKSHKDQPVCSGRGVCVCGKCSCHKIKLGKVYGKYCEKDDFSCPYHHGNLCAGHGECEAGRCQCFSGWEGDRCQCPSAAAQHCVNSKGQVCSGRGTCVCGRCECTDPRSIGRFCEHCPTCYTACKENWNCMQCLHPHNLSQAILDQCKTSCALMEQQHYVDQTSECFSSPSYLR

| SMILES | IC50 [1] [pM] | IC50 [2] [pM] |
| --- | --- | --- |
| CC(C)(C)c1cc(Br)c(O)c([C@H](CC(=O)O)NC(=O)CNC(=O)c2cc(O)cc(NC3=NCC(O)CN3)c2)c1 (stereo partly drawn) [Example 1, (3S)-3-(3-bromo-5-(tert-butyl)-2-hydroxyphenyl)-3-(2-(3-hydroxy-5-((5-hydroxy-1,4,5,6-tetrahydropyrimidin-2-yl)amino)benzamido)acetamido)propanoic acid] | 47000 | 100 |
| CC(C)(C)c1cc(Br)cc([C@H](CC(=O)O)NC(=O)CNC(=O)c2cc(O)cc(NC3=NCC(O)CN3)c2)c1O (stereo partly drawn) [Example 2, (3S)-3-(5-bromo-3-(tert-butyl)-2-hydroxyphenyl)-3-(2-(3-hydroxy-5-((5-hydroxy-1,4,5,6-tetrahydropyrimidin-2-yl)amino)benzamido)acetamido)propanoic acid] | 1000 | 100 |
| CC(C)(O)c1cc(Br)cc([C@H](CC(=O)O)NC(=O)CNC(=O)c2cc(O)cc(NC3=NCC(O)CN3)c2)c1 (stereo partly drawn) [Example 3, (3S)-3-(3-bromo-5-(2-hydroxypropan-2-yl)phenyl)-3-(2-(3-hydroxy-5-((5-hydroxy-1,4,5,6-tetrahydropyrimidin-2-yl)amino)benzamido)acetamido)propanoic acid] | 700 | 400 |
| CC(C)(O)c1cc(Cl)cc([C@H](CC(=O)O)NC(=O)CNC(=O)c2cc(O)cc(NC3=NCC(O)CN3)c2)c1 (stereo partly drawn) [Example 4, (3S)-3-(3-chloro-5-(2-hydroxypropan-2-yl)phenyl)-3-(2-(3-hydroxy-5-((5-hydroxy-1,4,5,6-tetrahydropyrimidin-2-yl)amino)benzamido)acetamido)propanoic acid] | 400 | 600 |
| CC(C)(C)c1cc(Br)cc([C@H](CC(=O)O)NC(=O)CNC(=O)c2cccc(NC(=N)N)c2)c1 [Example 5, (S)-3-(3-bromo-5-(tert-butyl)phenyl)-3-(2-(3-guanidinobenzamido)acetamido) propanoic acid] | 1600 | 200 |
| CC(C)(C)c1cc(Br)cc([C@H](CC(=O)O)NC(=O)CNC(=O)c2cncc(NC(=N)N)c2)c1 [Example 6, (S)-3-(3-bromo-5-(tert-butyl)phenyl)-3-(2-(5-guanidinonicotinamido)acetamido) propanoic acid] | 2200 | 300 |
| CC(C)(C)c1cc(Br)cc([C@H](CC(=O)O)NC(=O)CNC(=O)c2cccc(NC3=NCCN3)c2)c1 [Example 7, (S)-3-(3-bromo-5-(tert-butyl)phenyl)-3-(2-(3-((4,5-dihydro-1H-imidazol-2-yl)amino)benzamido)acetamido)propanoic acid] | 500 | 100 |
| CC(C)(C)c1cc(Br)cc([C@H](CC(=O)O)NC(=O)CNC(=O)c2cncc(NC3=NCC(O)CN3)c2)c1 (stereo partly drawn) [Example 8, (3S)-3-(3-bromo-5-(tert-butyl)phenyl)-3-(2-(5-((5-hydroxy-1,4,5,6-tetrahydropyrimidin-2-yl)amino)nicotinamido)acetamido)propanoic acid] | 500 | 100 |
| CC(C)(C)c1cc(Br)cc([C@H](CC(=O)O)NC(=O)CNC(=O)c2cc(O)cc(NC3=NCCN3)c2)c1 [Example 9, (S)-3-(3-bromo-5-(tert-butyl)phenyl)-3-(2-(3-((4,5-dihydro-1H-imidazol-2-yl)amino)-5-hydroxybenzamido)acetamido)propanoic acid] | 1200 | 100 |
| CC(C)(C)c1cc([C@H](CC(=O)O)NC(=O)CNC(=O)c2cncc(NC(=N)N)c2)cc(C(C)(C)C)c1 [Example 10, (S)-3-(3,5-di-tert-butylphenyl)-3-(2-(5-guanidinonicotinamido)acetamido)propanoic acid] | 71000 | 200 |
| CC(C)(C#N)c1cc(Br)cc([C@H](CC(=O)O)NC(=O)CNC(=O)c2cc(O)cc(NC3=NCC(O)CN3)c2)c1 (stereo partly drawn) [Example 11, (3S)-3-(3-bromo-5-(2-cyanopropan-2-yl)phenyl)-3-(2-(3-hydroxy-5-((5-hydroxy-1,4,5,6-tetrahydropyrimidin-2-yl)amino)benzamido)acetamido)propanoic acid] | 700 | 200 |
| CC(C)(C)c1cc(C#N)cc([C@H](CC(=O)O)NC(=O)CNC(=O)c2cc(O)cc(NC3=NCC(O)CN3)c2)c1 (stereo partly drawn) [Example 12, (3S)-3-(3-(tert-butyl)-5-cyanophenyl)-3-(2-(3-hydroxy-5-((5-hydroxy-1,4,5,6-tetrahydro-pyrimidin-2-yl)amino)benzamido)acetamido)propanoic acid] | 200 | 200 |
| CC(C)(O)c1cc([C@H](CC(=O)O)NC(=O)CNC(=O)c2cc(O)cc(NC3=NCC(O)CN3)c2)cc(C(F)(F)F)c1 (stereo partly drawn) [Example 13, (3S)-3-(2-(3-hydroxy-5-((5-hydroxy-1,4,5,6-tetrahydropyrimidin-2-yl)amino)benzamido)acetamido)-3-(3-(2-hydroxypropan-2-yl)-5-(trifluoromethyl)phenyl)propanoic acid] | 300 | 600 |
| COCC(C)(C)c1cc(Cl)cc([C@H](CC(=O)O)NC(=O)CNC(=O)c2cc(O)cc(NC3=NCC(O)CN3)c2)c1 (stereo partly drawn) [Example 14, (3S)-3-(3-chloro-5-(1-methoxy-2-methylpropan-2-yl)phenyl)-3-(2-(3-hydroxy-5-((5-hydroxy-1,4,5,6-tetrahydropyrimidin-2-yl)amino)benzamido)acetamido)propanoic acid] | 300 | 300 |
| CC(C)(CO)c1cc(Cl)cc([C@H](CC(=O)O)NC(=O)CNC(=O)c2cc(O)cc(NC3=NCC(O)CN3)c2)c1 (stereo partly drawn) [Example 15, (3S)-3-(3-chloro-5-(1-hydroxy-2-methylpropan-2-yl)phenyl)-3-(2-(3-hydroxy-5-((5-hydroxy-1,4,5,6-tetrahydropyrimidin-2-yl)amino)benzamido)acetamido)propanoic acid] | 400 | 300 |
| COCC1(c2cc(Cl)cc([C@H](CC(=O)O)NC(=O)CNC(=O)c3cc(O)cc(NC4=NCC(O)CN4)c3)c2)CCOCC1 (stereo partly drawn) [Example 16, (3S)-3-(3-chloro-5-(4-(Methoxymethyl)tetrahydro-2H-pyran-4-yl)phenyl)-3-(2-(3-hydroxy-5-((5-hydroxy-1,4,5,6-tetrahydropyrimidin-2-yl)amino)benzamido)acetamido)propanoic acid] | 600 | 400 |
| O=C(O)C[C@H](NC(=O)CNC(=O)c1cc(O)cc(NC2=NCC(O)CN2)c1)c1cc(Cl)cc(C2(CO)CCOCC2)c1 (stereo partly drawn) [Example 17, (3S)-3-(3-chloro-5-(4-(hydroxymethyl)tetrahydro-2H-pyran-4-yl)phenyl)-3-(2-(3-hydroxy-5-((5-hydroxy-1,4,5,6-tetrahydropyrimidin-2-yl)amino)benzamido)acetamido)propanoic acid] | 500 | 400 |
| CC(C)(C)c1cc(-c2cccnc2)cc([C@H](CC(=O)O)NC(=O)CNC(=O)c2cc(O)cc(NC3=NCC(O)CN3)c2)c1 (stereo partly drawn) [Example 18, (3S)-3-(3-(tert-butyl)-5-(pyridin-3-yl)phenyl)-3-(2-(3-hydroxy-5-((5-hydroxy-1,4,5,6-tetrahydropyrimidin-2-yl)amino)benzamido)acetamido)propanoic acid] | 21000 | 300 |
| CC(C)(C)c1cc(-c2cncnc2)cc([C@H](CC(=O)O)NC(=O)CNC(=O)c2cc(O)cc(NC3=NCC(O)CN3)c2)c1 (stereo partly drawn) [Example 19, (3S)-3-(3-(tert-butyl)-5-(pyrimidin-5-yl)phenyl)-3-(2-(3-hydroxy-5-((5-hydroxy-1,4,5,6-tetrahydropyrimidin-2-yl)amino)benzamido)acetamido)propanoic acid] | 21000 | 400 |
| O=C(O)C[C@H](NC(=O)CNC(=O)c1cc(O)cc(NC2=NCC(O)CN2)c1)c1cc(Cl)cc(C2(CF)CCOCC2)c1 (stereo partly drawn) [Example 20, (3S)-3-(3-chloro-5-(4-(fluoromethyl)tetrahydro-2H-pyran-4-yl)phenyl)-3-(2-(3-hydroxy-5-((5-hydroxy-1,4,5,6-tetrahydropyrimidin-2-yl)amino)benzamido)acetamido)propanoic acid] | 500 | 500 |
